Reference: patent publication US20210347823A1, “METHODS OF PHYSICOCHEMICAL-GUIDED PEPTIDE DESIGN AND NOVEL PEPTIDES DERIVED THEREFROM” (Massachusetts Institute of Technology, priority 2018, published 2021)

Columns and labels:
[1] = system: S. aureus strain ATCC12600; experiment: MIC assay (broth microdilution) against S. aureus ATCC12600; format: cell-based, Staphylococcus aureus; conditions: S. aureus ATCC12600, 24 h, 37° C.
From the text: (§1) FIGS. 2A-2E. Design, physicochemical features and activity of Pol-CP—NH2 and Ala-scan analogs. FIG. 2A. Theoretical physicochemical properties of interest of the wild type and Ala-scan analogs, where H denotes hydrophobicity, μH is the hydrophobic moment, q represents the net charge and P/N is the ratio of polar/non-polar residues in the sequence. Top to bottom, left to right the sequences correspond to SEQ ID NOs: 1-13. FIG. 2B. Schematic of the in vitro biological activity experimental design. Briefly, 10^4 bacterial cells and serially diluted peptides (0-128 μmol L^−1) were added to a 96-well plate and incubated at 37° C. One day after the exposure, the solution in each well was measured in a microplate reader (600 nm) to check inhibition of bacteria compared to the untreated controls and presented as heat maps of antimicrobial activities (μmol L^−1) against four bacteria strains: E. coli strain BL21, S. aureus strain ATCC12600 and P. aeruginosa strains PA01, and PA14. Assays were performed in triplicates. FIG. 2C. Graph correlating MIC (μmol L^−1) averages vs H and (FIG. 2D) MIC (μmol L^−1) averages vs μH, where dots […] the dashed line show peptides with higher activity compared to the wild type, in which one can observe ranges of optimal activity in determined intervals of H and μH values. FIG. 2E. […]

[2] = system: P. aeruginosa strain PA01; experiment: MIC assay (broth microdilution) against P. aeruginosa PA01; format: cell-based, Pseudomonas aeruginosa; conditions: P. aeruginosa PA01, 24 h, 37° C.
From the text: as §1

[3] = system: P. aeruginosa strain PA14; experiment: MIC assay (broth microdilution) against P. aeruginosa PA14; format: cell-based, Pseudomonas aeruginosa; conditions: P. aeruginosa PA14, 24 h, 37° C.
From the text: as §1

[4] = Stability assay in fetal bovine serum; format: in vitro ADME; conditions: fetal bovine serum, 6 h
Description: FIGS. 6A-6B. Hemolysis and resistance to protease-mediated degradation of engineered peptides. FIG. 6A. Schematic of experimental design and hemolytic assay results of Pol-CP—NH2 and derivatives, where hemolytic activity was evaluated by incubating the peptides (0.1-100 μmol L^−1) with human red blood cells in PBS at room temperature for 1 h. Experiments were performed in triplicate, (*p<0.05). FIG. 6B. Resistance to degradation of Pol-CP—NH2 and analogs exposed to fetal bovine serum (FBS) proteases for 6 h. Experiments were done in triplicate.
Stability Assays. The stability assay was performed with GIBCO fetal bovine serum diluted to 25% in water. 20 ? L of a 10 mg mL^−1 peptide solution was added to 1 mL 25% serum solution and kept at 37° C. The experiments were made in triplicate and 100 ? L aliquots were taken at 0, 0.5, 1, 2, 4 and 6 h. 10 ? L of TFA was added to the aliquots and the new solution was kept at 5° C. for 10 min, after that it was centrifuged at 14,000 rpm for 15 min, according to Powell et al. (Powell M. F. et al., Pharm. Res. 10, 1268-1273 (1993)). The reaction kinetics was followed by liquid chromatography and the percentage of remaining peptide was calculated by integrating the peptide peak area.

Substance | MIC [1] [µmol/L] | MIC [2] [µmol/L] | MIC [3] [µmol/L] | resistance to protease-mediated degradation [4]
H-ILGTILGLLKSL-NH2 [WT, ILGTILGLLKSL-NH2, reference compound] | 64.0 | 64.0 | 64.0 | –
H-ILGTILKLLKSL-NH2 [Peptide 16, ILGTILKLLKSL-NH2] | – | – | – | increased resistance to protease-mediated degradation
